According to ChEMBL document CHEMBL5316298, “Discovery of Amphiphilic Xanthohumol Derivatives as Membrane-Targeting Antimicrobials against Methicillin-Resistant Staphylococcus aureus” (J Med Chem, 2023):

Tests used:
Staphylococcus aureus [1] = assay: Antibacterial activity against Staphylococcus aureus ATCC 29213 incubated for 16 to 18 hrs by CLSI-based microbroth dilution method; assay type: functional; details: time 16-18 hrs
Staphylococcus aureus [2] = assay: Antibacterial activity against methicillin-resistant Staphylococcus aureus clinical isolate 1 incubated for 16 to 18 hrs by CLSI-based microbroth dilution method; assay type: functional; details: time 16-18 hrs
Staphylococcus aureus [3] = assay: Antibacterial activity against methicillin-resistant Staphylococcus aureus clinical isolate 2 incubated for 16 to 18 hrs by CLSI-based microbroth dilution method; assay type: functional; details: time 16-18 hrs
Staphylococcus aureus [4] = assay: Antibacterial activity against methicillin-resistant Staphylococcus aureus clinical isolate 3 incubated for 16 to 18 hrs by CLSI-based microbroth dilution method; assay type: functional; details: time 16-18 hrs
Staphylococcus aureus [5] = assay: Antibacterial activity against methicillin-resistant Staphylococcus aureus clinical isolate 4 incubated for 16 to 18 hrs by CLSI-based microbroth dilution method; assay type: functional; details: time 16-18 hrs
Staphylococcus aureus [6] = assay: Antibacterial activity against methicillin-resistant Staphylococcus aureus clinical isolate 5 incubated for 16 to 18 hrs by CLSI-based microbroth dilution method; assay type: functional; details: time 16-18 hrs
Staphylococcus aureus [7] = assay: Antibacterial activity against methicillin-resistant Staphylococcus aureus clinical isolate 6 incubated for 16 to 18 hrs by CLSI-based microbroth dilution method; assay type: functional; details: time 16-18 hrs
Staphylococcus aureus [8] = assay: Antibacterial activity against methicillin-resistant Staphylococcus aureus clinical isolate 7 incubated for 16 to 18 hrs by CLSI-based microbroth dilution method; assay type: functional; details: time 16-18 hrs
Staphylococcus aureus [9] = assay: Antibacterial activity against methicillin-resistant Staphylococcus aureus clinical isolate 8 incubated for 16 to 18 hrs by CLSI-based microbroth dilution method; assay type: functional; details: time 16-18 hrs
Staphylococcus aureus [10] = assay: Antibacterial activity against methicillin-resistant Staphylococcus aureus clinical isolate 9 incubated for 16 to 18 hrs by CLSI-based microbroth dilution method; assay type: functional; details: time 16-18 hrs
Staphylococcus aureus [11] = assay: Antibacterial activity against methicillin-resistant Staphylococcus aureus clinical isolate 10 incubated for 16 to 18 hrs by CLSI-based microbroth dilution method; assay type: functional; details: time 16-18 hrs
[12] = Hemolytic activity in sheep erythrocytes incubated for 1 hr by absorbance based analysis; assay type: toxicity, cell-based, Ovis aries, Erythrocyte

SMILES | MIC (Staphylococcus aureus [1]) [mg/L] | MIC (Staphylococcus aureus [2]) [mg/L] | MIC (Staphylococcus aureus [3]) [mg/L] | MIC (Staphylococcus aureus [4]) [mg/L] | MIC (Staphylococcus aureus [5]) [mg/L] | MIC (Staphylococcus aureus [6]) [mg/L] | MIC (Staphylococcus aureus [7]) [mg/L] | MIC (Staphylococcus aureus [8]) [mg/L] | MIC (Staphylococcus aureus [9]) [mg/L] | MIC (Staphylococcus aureus [10]) [mg/L] | MIC (Staphylococcus aureus [11]) [mg/L] | HC50 at 1 h [12] [µg/mL]
COc1cc2c(c(O)c1C(=O)/C=C/c1ccc(OCCCCC[N+](C)(C)CC(=O)N3CCOCC3)cc1)C=CC(C)(C)O2.[Br-] | 8 | 2 | 4 | 4 | 4 | 4 | 2 | 4 | 4 | 4 | 2 | > 1280
CCCCCNC(=O)C[N+](C)(C)CCCCCOc1ccc(/C=C/C(=O)c2c(OC)cc3c(c2O)C=CC(C)(C)O3)cc1.[Br-] | 2 | 2 | 2 | 2 | 2 | 2 | 2 | 4 | 2 | 8 | 4 | 301
CCCCCNC(=O)C[N+](C)(C)CCCOc1ccc(/C=C/C(=O)c2c(OC)cc3c(c2O)C=CC(C)(C)O3)cc1.[Br-] | 2 | 2 | 4 | 2 | 4 | 2 | 4 | 4 | 4 | 4 | 4 | 169
COc1cc2c(c(O)c1C(=O)/C=C/c1ccc(OCCC[N+](C)(C)CC(=O)N3CCOCC3)cc1)C=CC(C)(C)O2.[Br-] | 8 | 8 | 8 | 8 | 16 | 8 | 8 | 4 | 8 | 8 | 8 | > 1280
CCCCN(CCCC)C(=O)C[N+](C)(C)CCCOc1ccc(/C=C/C(=O)c2c(OC)cc3c(c2O)C=CC(C)(C)O3)cc1.[Br-] | 2 | 2 | 2 | 2 | 2 | 1 | 1 | 1 | 1 | 2 | 2 | 434
COc1cc2c(c(O)c1C(=O)/C=C/c1ccc(OCCCC[N+](C)(C)CC(=O)N(C(C)C)C(C)C)cc1)C=CC(C)(C)O2.[Br-] | 2 | 8 | 2 | 2 | 2 | 2 | 1 | 2 | 2 | 2 | 2 | 657
CCCCN(CCCC)C(=O)C[N+](C)(C)CCCCCOc1ccc(/C=C/C(=O)c2c(OC)cc3c(c2O)C=CC(C)(C)O3)cc1.[Br-] | 2 | 2 | 2 | 4 | 8 | 2 | 1 | 2 | 4 | 8 | 2 | 409
COc1cc2c(c(O)c1C(=O)/C=C/c1ccc(OCCCC[N+](C)(C)CC(=O)N(CC(C)C)CC(C)C)cc1)C=CC(C)(C)O2.[Br-] | 4 | 2 | 2 | 1 | 4 | 1 | 1 | 1 | 2 | 2 | 4 | 333
CCCCNC(=O)C[N+](C)(C)CCCCCOc1ccc(/C=C/C(=O)c2c(OC)cc3c(c2O)C=CC(C)(C)O3)cc1.[Br-] | 2 | 2 | 2 | 2 | 2 | 1 | 1 | 2 | 2 | 4 | 2 | 826
COc1cc2c(c(O)c1C(=O)/C=C/c1ccc(OCCCC[N+](C)(C)CC(=O)N3CCSCC3)cc1)C=CC(C)(C)O2.[Br-] | 4 | 4 | 2 | 2 | 4 | 4 | 2 | 4 | 4 | 2 | 2 | 705
COc1cc2c(c(O)c1C(=O)/C=C/c1ccc(OCCC[N+](C)(C)CC(=O)N(C(C)C)C(C)C)cc1)C=CC(C)(C)O2.[Br-] | 4 | 2 | 2 | 1 | 2 | 1 | 1 | 2 | 2 | 2 | 4 | 158
CCCN(CCC)C(=O)C[N+](C)(C)CCCOc1ccc(/C=C/C(=O)c2c(OC)cc3c(c2O)C=CC(C)(C)O3)cc1.[Br-] | 2 | 2 | 2 | 1 | 2 | 2 | 2 | 1 | 2 | 1 | 2 | 118
CCCNC(=O)C[N+](C)(C)CCCOc1ccc(/C=C/C(=O)c2c(OC)cc3c(c2O)C=CC(C)(C)O3)cc1.[Br-] | 4 | 4 | 2 | 2 | 4 | 2 | 2 | 2 | 2 | 2 | 4 | 210
CCCCCCNC(=O)C[N+](C)(C)CCCCOc1ccc(/C=C/C(=O)c2c(OC)cc3c(c2O)C=CC(C)(C)O3)cc1.[Br-] | 2 | 2 | 2 | 2 | 8 | 2 | 1 | 4 | 4 | 4 | 2 | 938
CCCCCCNC(=O)C[N+](C)(C)CCCCCOc1ccc(/C=C/C(=O)c2c(OC)cc3c(c2O)C=CC(C)(C)O3)cc1.[Br-] | 4 | 2 | 2 | 2 | 2 | 2 | 2 | 4 | 4 | 4 | 2 | 245
CCCCCNC(=O)C[N+](C)(C)CCCCOc1ccc(/C=C/C(=O)c2c(OC)cc3c(c2O)C=CC(C)(C)O3)cc1.[Br-] | 4 | 4 | 4 | 4 | 8 | 4 | 2 | 4 | 4 | 4 | 4 | 83.4
COc1cc2c(c(O)c1C(=O)/C=C/c1ccc(OCCC[N+](C)(C)CC(=O)N(CC(C)C)CC(C)C)cc1)C=CC(C)(C)O2.[Br-] | 2 | 2 | 4 | 1 | 2 | 1 | 1 | 1 | 2 | 2 | 4 | 447
CCCCN(CCCC)C(=O)C[N+](C)(C)CCCCOc1ccc(/C=C/C(=O)c2c(OC)cc3c(c2O)C=CC(C)(C)O3)cc1.[Br-] | 2 | 1 | 2 | 1 | 2 | 2 | 1 | 4 | 4 | 1 | 2 | 466
CCCNC(=O)C[N+](C)(C)CCCCCOc1ccc(/C=C/C(=O)c2c(OC)cc3c(c2O)C=CC(C)(C)O3)cc1.[Br-] | 4 | 2 | 8 | 2 | 2 | 1 | 1 | 2 | 2 | 8 | 2 | 974
CCCCNC(=O)C[N+](C)(C)CCCOc1ccc(/C=C/C(=O)c2c(OC)cc3c(c2O)C=CC(C)(C)O3)cc1.[Br-] | 2 | 2 | 2 | 1 | 2 | 2 | 2 | 2 | 2 | 1 | 4 | 58.3
COc1cc2c(c(O)c1C(=O)/C=C/c1ccc(OCCC[N+](C)(C)CC(=O)N3CCSCC3)cc1)C=CC(C)(C)O2.[Br-] | 2 | 4 | 2 | 2 | 4 | 2 | 2 | 2 | 2 | 2 | 4 | 416
CCCNC(=O)C[N+](C)(C)CCCCOc1ccc(/C=C/C(=O)c2c(OC)cc3c(c2O)C=CC(C)(C)O3)cc1.[Br-] | 4 | 2 | 2 | 2 | 4 | 4 | 2 | 2 | 2 | 2 | 4 | 410
